Numbered stars: 1 amine (or outer) side, 2 acyl side, 3 side chain; on linkers, the order of the positions; unused ones are H or OH. Square brackets hold non-standard residues; d marks the D form. Peptide text beside a SMILES is read from it. X2 = O=C([C@H](Cc1c(F)cc(F)c(F)c1F)N[*:1])[*:2]; X3 = O=C([C@H](Cc1cc(F)c(F)c(F)c1F)N[*:1])[*:2]; Cha = N[C@@H](CC1CCCCC1)C(=O)O
Experiment: Activation of PAR-1 in human platelet-rich plasma assessed as induction of platelet aggregation by turbidimetric method

Compared with `CC(C)C[C@H](NC(=O)[C@H](CC(C)C)NC(=O)[C@H](CC1CCCCC1)NC(=O)[C@@H](N)CO)C(=O)N[C@@H](CCCNC(=N)N)C(=O)N[C@@H](CC(N)=O)C(=O)N1CCC[C@H]1C(N)=O` (H-S[Cha]LLRNP-NH2), `CC(C)C[C@H](NC(=O)[C@H](CC(C)C)NC(=O)[C@H](Cc1cc(F)c(F)c(F)c1F)NC(=O)[C@@H](N)CO)C(=O)N[C@@H](CCCNC(=N)N)C(=O)N[C@@H](CC(N)=O)C(=O)N1CCC[C@H]1C(N)=O` (H-S[X3]LLRNP-NH2) is 2-fold lower in EC50: 99 µM for the first, 50 µM for the second. The second is the more potent here.

Going from “H-SFLLRNP-NH2 [1-{(S)-2-[(S)-2-((S)-2-{(S)-2-[(S)-2-((S)-2-Amino-3-hydroxy-propionylamino)-3-phenyl-propionylamino]-4-methyl-pentanoylamino}-4-methyl-pentanoylamino)-5-guanidino-pentanoylamino]-3-carbamoyl-propionyl}-pyrrolidine-2-carboxylic acid amide]” to `CC(C)C[C@H](NC(=O)[C@H](CC(C)C)NC(=O)[C@H](Cc1c(F)cc(F)c(F)c1F)NC(=O)[C@@H](N)CO)C(=O)N[C@@H](CCCNC(=N)N)C(=O)N[C@@H](CC(N)=O)C(=O)N1CCC[C@H]1C(N)=O` (H-S[X2]LLRNP-NH2), the EC50 rises from 3 µM to 8.9 µM (3-fold). The first is the more potent here.

— BindingDB's records for doi:10.1016/j.bmc.2021.116498 (Kyushu University, 2021)
